Laboratory results published in patent US8334316B2, “Substituted organosulfur compounds and methods of using thereof” (ACEA Biosciences, Inc., priority 2004, dated 2012).
Values joined by “and” are separate entries in the source; they are usually repeats but may differ in a detail not shown here. Identical values can stand only once. Marks after values point to notes of the source that are not given here.

Assays:
HCT-8 human colon cancer = HCT-8 human colon cancer xenograft in nude mice (Example 3); assay type: in vivo; conditions: for tumor inhibition rate %: vs solvent control
Description: Both male and female mice were used. […] Test control. […] Preparation and Administration of Test Compounds. […] For human tumor xenograft model, all used materials, including animal food, animal cage, supporting materials and apparatus contacted by animals, were high-pressure sterilized. Nude mice were maintained in laminar flow shelves under SPF condition. After tumor transplantation, mouse weight and tumor size in each compound dosage group were dynamically monitored and plotted.

[1] = test system: purified bovine brain tubulin; assay: In vitro microtubule assembly assay with pure (MAP-free) tubulin, light scattering OD400; assay type: biochemical
Method: Microtubule Assembly Assays. Microtubule seeds were synthesized by incubating purified bovine brain tubulin with 1 mM GTP, 10% glycerol and 10% DMSO at 35° C. for 30 minutes, followed by shearing by passing the assembled microtubules 6 times through a 27 gauge needle. Microtubule assembly was assayed by adding 27.5 ul of microtubule seeds to spectrophotometer cuvettes (maintained at 35° C.) containing 247.5 ul purified bovine brain tubulin in a PEM-100 buffer (100 mM Pipes pH=6.8, 1 mM […], 1 mM MgSO4) supplemented with 1 mM GTP (and drug where applicable) and monitoring the OD400 for 2 hours. Since the compounds are dissolved in DMSO and DMSO can have a significant effect on microtubule assembly, DMSO was added to all cuvettes so as to equal the largest volume of drug added to reactions. It should be noted that the initial velocity of the microtubule assembly reactions is so fast that one can not always catch the initial rise on the light scattering profile because it is occurring while samples are being prepared. However, all samples start at the same optical density, since they are identical with the exception of the drug being introduced.

[2] = test system: purified bovine brain tubulin; assay: In vitro microtubule dynamics (dynamic instability) assay, video microscopy; assay type: biochemical
Method: Tubulin Purification and Microtubule Dynamics Assays. Tubulin was purified, as described in the literature (“Kinetic stabilization of microtubule dynamic instability in vitro by vinblastine”, Toso, R. J., Jordan, […]., Matsumoto, B. and Wilson, L., Biochemistry, 1993, 32, 1285-1293). Briefly, microtubule-associated protein-rich bovine brain microtubule protein was prepared by three cycles of assembly and disassembly. Tubulin was purified from other microtubule proteins by elution through a Whatman P-11 phosphocellulose column equilibrated in PEM50 (50 mM Pipes, 1 mM MgSO4, 1 mM EGTA, 0.1 mM GTP). Purified tubulin (>99% pure) was drop-frozen in liquid nitrogen and stored at -70° C. […] The dynamics of individual microtubules were recorded at 37° C. using differential interference contrast enhanced video microscopy. The ends were designated as plus or minus on the basis of the growth rate, the number of microtubules that grew at opposite ends of the seeds, and the relative lengths of the microtubules (Panda, D., Goode, […]. and Wilson, L., Kinetic stabilization of microtubule dynamics at steady state by tau and microtubule-binding domains of tau, Biochemistry, 1995, 34, 11117-11127; Walker, R. A., O'Brien, […]., Voter, W. A., Erickson, H. P. and Salmon, E. D., Dynamic instability of individual microtubules analyzed by video light microscopy: rate constants and transition frequencies, J. Cell Biol. 1988, 107, 1437-1448). Plus ends were analyzed for 10 minutes per slide during the steady-state phase of polymerization ( 45 min after initiation of polymerization). Life histories of individual microtubules were collected as described by Panda et al. 1995 (Panda, D., Goode, […]. and Wilson, L., Kinetic stabilization of microtubule dynamics at steady state by tau and microtubule-binding domains of tau, Biochemistry, 1995, 34 11117-11127) with modifications. Data points were collected at 1-3 s intervals. […] Average rates, lengths and durations are the averages of independent events. The catastrophe frequency was calculated by dividing the number of shortening events by the total time of growth and attenuation tracked, and rescue frequency was calculated by dividing the number of rescue events by the total time of shortening tracked. To control for experimental error, each condition was filmed over multiple days using at least two distinct tubulin/GTP mixtures (2-3 slides each). No gross variation in microtubule dynamics was observed between mixtures or slides of a given condition. The concentration of drug used in dynamic instability assays was chosen by initially observing microtubules stabilized with half the concentration used in microtubule assembly assays.

[3] = test system: P388 lymphocytic leukemia; assay: Murine P388 lymphocytic leukemia model (intraperitoneal transplantation), life span; assay type: in vivo, mouse; conditions: for Average life span X ± SD: observed within 30 days; for Life span ratio %: vs solvent control
Method: Both male and female mice were used.
Preparation and Administration of Test Compounds.
To prepare cancer cells for the P388 murine lymphocytic leukemia model, ascites of a P388 leukemia-bearing mouse were removed under sterile condition. The ascites were diluted in normal saline (1:6 for ascites to normal saline) to prepare cell suspension. 0.2 mL of the cell suspension was then injected intraperitoneally. […] The life span of carrier mice was determined within 30 days. The life span ratio comparing to the negative control group of the carrier mice in each compound treatment group was calculated according to the formula: Life span ratio %=average life span for the compound treatment group/average life span for the negative control group×100% (4)

mouse Lewis lung cancer = assay: In vivo antitumor efficacy, mouse Lewis lung cancer model, Example 3 (ACEA100108); conditions: for Inhibition rate (%): vs solvent control
Method: For human tumor xenograft models, cancer cells were passed twice in vivo before being transplanted into the nude mice for the study. Cultured human cancer cells in flask were first xenograft-transplanted in immunodeficient nude mice. After the cancer cells grew to a tumor of certain sizes in the nude mice, the tumor was removed form the nude mice and tumor tissues were dissected. The cell suspensions were prepared from the dissected tumor tissue and transplanted back to immunodeficient nude mice again (i.e. the second passage of cancer cells in human cancer xenograft-transplanted model). After the cancer cells grew to certain size, the tumor was removed from nude mice and the tumor tissues were dissected. The cell suspensions were prepared from dissected tissues and were used for the study of human cancer xenograft models described here.
Both male and female mice were used. However, for each experiment, animals of same sex were used. For the mouse transplanted tumor model, the numbers of animals tested were as follows: 10 for each dose group, 10 for positive control group and 20 for negative control group. For human tumor xenograft model, the numbers of animals tested were as follows: 6 for each dose group, 6 for positive control group and 12 for negative control group.
Test control. For negative control, each mouse was administered intravenously with the solvent only having the same volume and same concentration as those used in high dose ACEA100108 test, once a day, for 7 consecutive days. […] In a reference group, DBTS was administered intravenously at 50 mg/kg, once a day for 7 consecutive days.
Preparation and Administration of Test Compounds. […] Each time before use, this solution was diluted in normal saline to achieve desired ACEA100108 concentrations. Each mouse (about 20 g in weight) was administered intravenously with the compound solution of 0.5 mL at a controlled injection speed of 0.5 ml/0.5 min. 24 hrs after the tumor transplantation, intravenous injections of compound solutions into carrier mice were performed once a day, for consecutive 7 or 10 days.
Preparation of Tumor Cells for Transplantation and Determination of Compound Efficacy. To prepare the cancer cells for mouse Lewis lung cancer model, human breast cancer xenograft model and human colon cancer xenograft model, the fast growing tumors were first removed from the transplanted tumor mice. The tumor tissues were dissected and tumor cell suspensions were prepared in normal saline to have a concentration of 2-4×10^7 cells/ml. 0.2 ml of cell suspension was subcutaneously injected into the axillary region (right-side) of each mouse. […] Between two and four weeks after transplantation, mice were sacrificed and the transplanted tumors were removed from experimental mice.

[4] = 8 mg/kg/d iv x7 qd, 7 day after transplantation
[5] = 20 mg/kg/d iv x7 qd, 7 day after transplantation
[6] = 20 mg/kg/d iv x7 qd, 25 d (end)
[7] = 50 mg/kg/d iv x7 qd, 7 day after transplantation
[8] = 50 mg/kg/d iv x7 qd, 25 d (end)
[9] = shortening events, ACEA100108 .2uM

Fc1ccc(CSSSCc2ccc(F)cc2)cc1 [ACEA100108, Di(p-fluorobenzyl)trisulfide]
TV inhibition rate % T/C (HCT-8 human colon cancer; 8 mg/kg/d iv x7 qd): 55.73%
Tumor weight (HCT-8 human colon cancer; 8 mg/kg/d iv x7 qd): 1.30 ± 0.23 g
Mouse Body weight (HCT-8 human colon cancer; 8 mg/kg/d iv x7 qd, 0 Day (beginning)): 18.8 g and 18.8 ± 0.8 g
Mouse Body weight (HCT-8 human colon cancer; 8 mg/kg/d iv x7 qd, 7 d): 19.7 ± 0.8 g
Mice with palpable tumor / total mice (HCT-8 human colon cancer; [4]): 6/6††
Tumor volume (cm^3) (HCT-8 human colon cancer; [4]): 0.01 cm^3
Mouse Body weight (HCT-8 human colon cancer; 8 mg/kg/d iv x7 qd, 14 d): 21.3 ± 1.2 g
Tumor volume (cm^3) (HCT-8 human colon cancer; 8 mg/kg/d iv x7 qd, 14 d): 0.166 ± 0.05 cm^3
Mouse Body weight (HCT-8 human colon cancer; 8 mg/kg/d iv x7 qd, 21 d): 21.8 ± 1.2 g
Tumor volume (cm^3) (HCT-8 human colon cancer; 8 mg/kg/d iv x7 qd, 21 d): 0.379 ± 0.04 cm^3
Mouse Body weight (HCT-8 human colon cancer; 8 mg/kg/d iv x7 qd, 25 d (end)): 22.5 g and 22.5 ± 1 g
Tumor volume (cm^3) (HCT-8 human colon cancer; 8 mg/kg/d iv x7 qd, 25 d (end)): 0.870 cm^3 and 0.87 ± 0.15 cm^3
tumor inhibition rate % (HCT-8 human colon cancer; 8 mg/kg/d iv x7 qd): 15.03%
TV inhibition rate % T/C (HCT-8 human colon cancer; 20 mg/kg/d iv x7 qd): 41.89%
Tumor weight (HCT-8 human colon cancer; 20 mg/kg/d iv x7 qd): 1.10 ± 0.23 g
Mouse Body weight (HCT-8 human colon cancer; 20 mg/kg/d iv x7 qd, 0 Day (beginning)): 18.5 g and 18.5 ± 1 g
Mouse Body weight (HCT-8 human colon cancer; 20 mg/kg/d iv x7 qd, 7 d): 19.5 ± 1 g
Mice with palpable tumor / total mice (HCT-8 human colon cancer; [5]): 6/6††
Tumor volume (cm^3) (HCT-8 human colon cancer; [5]): 0.01 cm^3
Mouse Body weight (HCT-8 human colon cancer; 20 mg/kg/d iv x7 qd, 14 d): 20.7 ± 1 g
Tumor volume (cm^3) (HCT-8 human colon cancer; 20 mg/kg/d iv x7 qd, 14 d): 0.122 ± 0.04 cm^3
Mouse Body weight (HCT-8 human colon cancer; 20 mg/kg/d iv x7 qd, 21 d): 21.8 ± 1.2 g
Tumor volume (cm^3) (HCT-8 human colon cancer; 20 mg/kg/d iv x7 qd, 21 d): 0.317 ± 0.05 cm^3
Mouse Body weight (HCT-8 human colon cancer; [6]): 22.5 g and 22.5 ± 1 g
Tumor volume (cm^3) (HCT-8 human colon cancer; [6]): 0.654 cm^3 and 0.654 ± 0.09 cm^3
tumor inhibition rate % (HCT-8 human colon cancer; 20 mg/kg/d iv x7 qd): 28.10%
TV inhibition rate % T/C (HCT-8 human colon cancer; 50 mg/kg/d iv x7 qd): 33.63%
Tumor weight (HCT-8 human colon cancer; 50 mg/kg/d iv x7 qd): 0.832 ± 0.10 g
Mouse Body weight (HCT-8 human colon cancer; 50 mg/kg/d iv x7 qd, 0 Day (beginning)): 18.3 g and 18.3 ± 1 g
Mouse Body weight (HCT-8 human colon cancer; 50 mg/kg/d iv x7 qd, 7 d): 17.7 ± 1.2 g
Mice with palpable tumor / total mice (HCT-8 human colon cancer; [7]): 6/6††
Tumor volume (cm^3) (HCT-8 human colon cancer; [7]): 0.01 cm^3
Mouse Body weight (HCT-8 human colon cancer; 50 mg/kg/d iv x7 qd, 14 d): 17.8 ± 2.3 g
Tumor volume (cm^3) (HCT-8 human colon cancer; 50 mg/kg/d iv x7 qd, 14 d): 0.112 ± 0.02 cm^3
Mouse Body weight (HCT-8 human colon cancer; 50 mg/kg/d iv x7 qd, 21 d): 19.5 ± 1.6 g
Tumor volume (cm^3) (HCT-8 human colon cancer; 50 mg/kg/d iv x7 qd, 21 d): 0.236 ± 0.02 cm^3
Mouse Body weight (HCT-8 human colon cancer; [8]): 20.3 g and 20.3 ± 1 g
Tumor volume (cm^3) (HCT-8 human colon cancer; [8]): 0.525 cm^3 and 0.525 ± 0.14 cm^3
tumor inhibition rate % (HCT-8 human colon cancer; 50 mg/kg/d iv x7 qd): 45.62%
Effect on extent of microtubule assembly ([1]; 27 uM): marked inhibitory effect
Effect on microtubule assembly ([1]; lower dosages): minimal effects upon microtubule assembly
% time spent in attenuation phase ([2]; ACEA100108 .2uM): 69%
% time spent in growth phase ([2]; ACEA100108 .2uM): 30%
% time spent in shortening phase ([2]; ACEA100108 .2uM): 1%
Dynamicity ([2]; ACEA100108 .2uM): 0.83 um/min
Frequency of transitions ± SD: Catastrophes ([2]; ACEA100108 .2uM): 0.09 ± 0.03 events/min
Frequency of transitions ± SD: Rescues ([2]; ACEA100108 .2uM): 9.4 ± 3.0 events/min
Frequency of transitions ± SD: Total ([2]; ACEA100108 .2uM): 0.32 ± 0.06 events/min
Growth Rate ± SEM ([2]; ACEA100108 .2uM): 1.59 ± 0.1 um/min
Mean duration of attenuation ± SEM ([2]; ACEA100108 .2uM): 3.74 ± 0.7
Shortening Rate ± SEM ([2]; ACEA100108 .2uM): 35.8 ± 4.3 um/min
Duration of Event ([2]; growth events, ACEA100108 .2uM): 2.04 ± 0.3 min
Length of Excursion ([2]; growth events, ACEA100108 .2uM): 3.24 ± 0.3 um
Effect on duration of growth events ([2]; plus ends, steady state): increased the duration of growth events
Effect on length of growth events ([2]; plus ends, steady state): increased the duration of growth events and the average length of growth events
Effect on length of shortening events ([2]; plus ends, steady state): strong effect upon the length of shortening events
Duration of Event [2, 9]: 0.11 ± 0.02 min
Length of Excursion [2, 9]: 3.79 ± 0.3 um
animal No. beginning/end (survivors) ([3]; 12.5 mg/kg/d iv x7 qd): 10/0
Average life span X ± SD ([3]; 12.5 mg/kg/d iv x7 qd): 10.6 ± 0.84
Life span ratio % ([3]; 12.5 mg/kg/d iv x7 qd): 109.28%
animal No. beginning/end (survivors) ([3]; 25 mg/kg/d iv x7 qd): 10/0
Average life span X ± SD ([3]; 25 mg/kg/d iv x7 qd): 10.4 ± 1.17
Life span ratio % ([3]; 25 mg/kg/d iv x7 qd): 107.22%
animal No. beginning/end (survivors) ([3]; 50 mg/kg/d iv x7 qd): 10/0
Average life span X ± SD ([3]; 50 mg/kg/d iv x7 qd): 10.3 ± 0.95
Life span ratio % ([3]; 50 mg/kg/d iv x7 qd): 106.18%
Anticancer effect on P388 mouse leukemia model ([3]; 50, 25, 12.5 mg/kg iv x7 qd): did not exhibit anticancer effect
Animal No. beginning/end (survival) (mouse Lewis lung cancer; 6.25 mg/kg/d iv x7 qd): 10/10
Animal weight (g) beginning (mouse Lewis lung cancer; 6.25 mg/kg/d iv x7 qd): 20.3 g
Animal weight (g) end (mouse Lewis lung cancer; 6.25 mg/kg/d iv x7 qd): 24.4 g
Tumor weight (mouse Lewis lung cancer; 6.25 mg/kg/d iv x7 qd): 1.78 ± 0.24 g
Inhibition rate (%) (mouse Lewis lung cancer; 6.25 mg/kg/d iv x7 qd): 34.32%
Animal No. beginning/end (survival) (mouse Lewis lung cancer; 25 mg/kg/d iv x7 qd): 10/10
Animal weight (g) beginning (mouse Lewis lung cancer; 25 mg/kg/d iv x7 qd): 20.1 g
Animal weight (g) end (mouse Lewis lung cancer; 25 mg/kg/d iv x7 qd): 24.2 g
Tumor weight (mouse Lewis lung cancer; 25 mg/kg/d iv x7 qd): 1.21 ± 0.22 g
Inhibition rate (%) (mouse Lewis lung cancer; 25 mg/kg/d iv x7 qd): 55.35%
Animal No. beginning/end (survival) (mouse Lewis lung cancer; 100 mg/kg/d iv x7 qd): 10/8
Animal weight (g) beginning (mouse Lewis lung cancer; 100 mg/kg/d iv x7 qd): 20.6 g
Animal weight (g) end (mouse Lewis lung cancer; 100 mg/kg/d iv x7 qd): 23.4 g
Tumor weight (mouse Lewis lung cancer; 100 mg/kg/d iv x7 qd (text: administered only 5 times because of toxicity)): 1.08 ± 0.17 g
Inhibition rate (%) (mouse Lewis lung cancer; 100 mg/kg/d iv x7 qd (text: only 5 times because of toxicity)): 60.15%
